Patent publication US20110144125A1, “Anti-Arrhythmia Agents, Methods of Their Use, Methods of Their Identification and Kits Therefore” (THE UAB RESEARCH FOUNDATION, priority 2008, published 2011)
Structures can show the parent of a compound that is named as a salt.

Assays:
[1] = system: rat left atrial appendage; assay: 2-APB-induced spontaneous mechanical activity (SMA/SMEs) in isolated superfused rat left atria / left atrial appendage; details: 0.1 Hz paced, 15 μM 2-APB, titration after appearance of SMA
Experimental: (§1) Left atria were isolated from male Sprague-Dawley rats (325 to 400 g) under IP pentobarbital anesthesia (0.1 g/kg). Isolated left atria were superfused at 30° C. in Krebs-Henseleit (KH) buffer of the following mM composition: NaCl, 118; NaHCO3, 27; KCl, 4.8; MgSO4, 1.2; KH2PO4, 1.0; CaCl2, 1.8; and glucose, 11.1. Nearly isometric left atrial forces of contraction were measured as described.
Isolated superfused left atria were paced at 3 Hz. 2-APB was added to atrial superfusates from 0.015 or 0.15M DMSO stock solutions to achieve concentrations of 0, 2, 7.5, 15, or 22 μM (n=5 to 10 atria per concentration). Changes in atrial mechanical force were recorded during a subsequent 15 min superfusion.
Two groups of 5 to 6, 3 Hz paced atria were superfused in KH and exposed to 0 or 15 μM 2-APB for 10 min. The pacing stimulus was interrupted for 5 min and the number of spontaneous mechanical events (SMEs), defined as increases in mechanical force occurring in the absence of pacing, were measured as was the postrest potentiation response (PRP).
To determine whether diastolic interval affected the interaction between 2-APB and left atria, atrial pacing was decreased to 0.1 Hz, and 0, 7.5, or 22 μM 2-APB was added to the superfusate (n=6-8 per group). Superfusions continued for 15 min, and changes in atrial mechanical function were observed.
To establish whether SMA was reversible, atria (n=7) were paced at 0.1 Hz, exposed to 15 μM 2-APB for 10 min, and washed with KH. The effect of removing 2-APB on atrial mechanical function was recorded.
To test whether an anion transport inhibitor affected SMA, atria (n=7) were paced at 0.1 Hz in KH and exposed to 15 μM 2-APB. Following the appearance of SMA, they were titrated with 100 to 400 μM DIDS for 3 to 5 min at each concentration. Whether SMA occurred at the end of each titration period was recorded.
(§2) Left atria (n=10 per group) were paced at 0.1 Hz and treated with (i) 20 μM 2-APB for 10 min, (ii) with 30 nM isoproterenol for 5 min followed by 20 μM 2-APB for 10 min, and (iii) with 3 μM forskolin for 5 min followed by 20 μM 2-APB for 10 min.
The appendages then were titrated with increasing concentrations of 2-APB, and SMA was measured and recorded.
(§3) To determine the anti-arrhythmic activity of gossypol, isolated rat left atrial appendage and right ventricular muscle strips were used as model systems, as described above. Heart muscle was exposed to 20 μM 2-APB for 10 min to induce SMA, and rates of SMA were recorded as a percentage of initial SMA. The muscles then were titrated with up to 5 increasing concentrations of gossypol. Rates of SMA were recorded ˜10 min after the addition of concentration of the polyphenol.
To determine whether EGCG can prevent arrhythmia, rat left atrial appendages (n=9) were exposed to 20 μM 2-APB and rates of SMA were recorded. Groups of muscles (n=6 per) were pre-treated with 30 μM EGCG for 10 min following which they were exposed to 2-APB. Rates of SMA were recorded 10 min later.
as §3, with “whether EGCG is effective to reverse arrhythmia,” for “the anti-arrhythmic activity of gossypol,”, “Rat left atrial appendages were” for “Heart muscle was”, “left atrial appendages” for “muscles”, “the following polyphenols: EGCG, gossypol, resveratrol, and quercetin.” for “gossypol.”
To determine whether EGC can prevent arrhythmia, left atrial appendages (n=9) were exposed to 20 μM 2-APB and rates of SMA were recorded. Groups of appendages (n=6 per) were pre-treated with 30 μM EGC for 10 min following which they were exposed to 2-APB.

rat left atria [2] = assay: Left atrial force of contraction / post-rest potentiation maximum force
Experimental: as §1
The initial potentiated beat following prolonged rest (i.e., the PRP maximum force of contraction) reflects activator calcium available for SR release. The PRP response was used to obtain an indirect measure of left atrial SR calcium under our conditions.
Left atria (n=6) were superfused in KH, paced at 0.1 Hz, and subjected to PRP. Superfusion proceeded for another 35 min, and a second PRP was performed. These 2 forces were compared to assure the mechanical stability of our preparations.
One group (n=8) was superfused in KH, paced at 0.1 Hz, and their maximum force of contraction was measured. These atria were washed with KH containing 82 mM sodium, and a second PRP was performed 23 min later.
A second group (n=8) was paced at 0.1 Hz in KH and subjected to PRP. They were exposed to 22 μM 2-APB and, after the appearance of SMA, were washed with KH containing 22 μM 2-APB and 82 mM sodium. Superfusion continued for 23 min and a second PRP was performed.
Control 0.1 Hz paced atria (n=8) were subjected to PRP and exposed to 400 μM DIDS, and a second PRP was performed 23 min later.
A group of atria (n=8) were paced at 0.1 Hz in KH and subjected to PRP. They were exposed to 22 μM 2-APB, 400 μM DIDS was added to the superfusate after the appearance of SMA, and a second PRP was performed 23 min later.
(§4) Left atria (n=8 per group) were paced at 3 Hz and (i) titrated with 0 to 30 nM isoproterenol (Ahlquist, 1970) or (ii) exposed to 3 μM forskolin (Laurenza et al., 1980). Left atrial force and frequency of contraction, the time to peak tension and relaxation times were recorded after a 3-5 min exposure to forskolin or to any concentration of isoproterenol. The 3 Hz pacing stimulus was interrupted at the end of these protocols to measure SMEs.
(§5) Left atria (n=6 per group) were paced at 3 Hz, titrated with 0 to 300 nM (−)BayK 8644 ([…]-1,4-Dihydro-2,6-dimethyl-5-nitro-4-[2-(trifluormethyl)phenyl]-3-pyridinecarboxylic acid methyl ester; Franckowiak et al. 1985) or FPL-64176 ((2,5-Dimethyl-4-[2-(phenylmethyl)benzoyl]-111-pyrrole-3-carboxylic acid methyl ester; Zheng et al., 1991) and their mechanical function and rates of SMA were recorded after a 5 min exposure to any concentration of slow calcium channel activator.
(§6) To test whether ryanodine receptor calcium leak produces SMA, left atria (n=6 per group) were paced at 0.1 Hz, treated with 0 or 300 nM BayK 8644 for 5 min, and then exposed to 600 nM ryanodine (Sutko et al., 1997). Atrial mechanical function and rates of SMA were recorded 20 min after exposure to ryanodine.
(§7) Left atria (n=7) were paced at 3 Hz, treated with 120 μM ouabain (Illanes and Marshall, 1964), and any change in mechanical function was recorded at a new steady state, ˜10 min later. These atria were exposed to 20 μM 2-APB and their mechanical function and rates of SMA were recorded 10 min later.
To test whether zatebradine affects left atrial force of contraction, two groups of left atria (n=9 per group) were paced at 3 Hz and treated with 300 nM BayK 8644. Five minutes later one group was incubated with six increasing concentrations of zatebradine (10-100 μM) for 3-5 min at each concentration, and forces of contraction were recorded. A second group was treated with BayK 8644 but not zatebradine, and forces of contraction were recorded at corresponding times.

rat left atria [3] = assay: Spontaneous tachycardic activity (STA) in isolated rat left atria exposed to 2-APB under increased calcium load; details: for effect of If inhibitor on left atrial STA: BayK 8644 and 2-APB, zatebradine 70 μM, ZD-7288 titration to 100 μM
Experimental: (§8) Male Sprague-Dawley rats (325-400 g) were anesthetized with intra-peritoneal pentobarbital (0.1 g/kg). Their right and left atria were isolated, superfused at 30° C. in Krebs-Henseleit buffer, and nearly isometric forces of contraction were measured from these muscles (Wolkowicz et al., 2002). 2-APB was prepared as a 150 mM dimethyl sulfoxide stock.
as §4, §2
Left atrial contraction and relaxation times were recorded at these five times, the pacing stimulus was stopped and rates of SMA were recorded. To determine whether initial pacing rate affects left atrial response to 2-APB and isoproterenol, left atria (n=5-7 per group) were paced at 3 Hz and (i) remained untreated for 15 min, (ii) were treated with 20 μM 2-APB alone for 10 min, or (ii) were treated with 30 nM isoproterenol for 5 min followed by 20 μM 2-APB for 10 min. Atrial mechanical function was measured at these four times; the pacing stimulus then was stopped and rates of SMA were recorded.
as §5
Left atria (n=8 per group) were paced at 0.1 Hz, exposed to 300 nM BayK 8644 or FPL-64176 for 5 min followed by 20 μM 2-APB for 10 min. Atrial mechanical function was recorded at this time; the pacing stimulus then was stopped and rates of SMA were recorded.
as §6
Rates of SMA were measured 5 min later.
as §7
3 Hz-paced left atria (n=9 per group) were superfused (i) in Krebs-Henseleit alone or (ii) they were treated with 20 μM 2-APB for 10 min, (iii) with 300 nM BayK 8644 for 10 min and with 20 μM 2-APB for 10 min, or (iv) they were treated with 300 nM BayK 8644 and 20 μM 2-APB for 10 min, then with 70 μM zatebradine (3-[3-[[2-(3,4-Dimethoxyphenyl)ethyl]methylamino] propyl]-1,3,4,5-tetrahydro-7,8,-dimethoxy-2H-3-benzazepin-2-one hydrochloride) for 10 min (Baruscotti et al., 2005). Pacing was interrupted at these times and rates of SMA were recorded.

rat right atria = assay: Right atrial spontaneous (pacemaker-driven) contraction frequency
Experimental: as §8
Left atria (n=9) were paced at 0.1 Hz, treated with 300 nM BayK 8644 for 5 min, then with 20 μM 2-APB for 10 min, and the pacing stimulus was stopped. These preparations then were incubated with six increasing concentrations of zatebradine (10-100 μM) for 3-5 min at each concentration, and rates of SMA were recorded. Untreated right atria (n=9) also were titrated with zatebradine and its effect on contraction frequency was recorded.
To test whether zatebradine affects the SMA occurring in the presence of 2-APB and isoproterenol, left atria (n=7) were paced at 0.1 Hz, treated with 30 nM isoproterenol for 5 min, then with 20 μM 2-APB for 10 min, and the pacing stimulus was stopped. Rates of SMA were recorded, these left atria were exposed to 70 μM zatebradine for 10 min, and rates of SMA were recorded again. A group of right atria (n=7) also were exposed to 30 nM isoproterenol for 5 min and then to 70 μM zatebradine for 10 min. Right atrial contraction frequency was recorded at these two times.
To test whether ZD-7288 (4-Ethylphenyl amino-1,2-dimethyl-6-methylaminopyridinium chloride), an If inhibitor structurally unrelated to zatebradine (Baruscotti et al., 2005; Sanders et al., 2006) affects the SMA occurring in the presence of 2-APB and BayK 8644, rat left atria (n=7) were treated with 300 nM BayK 8644 for 5 min, then with 20 μM 2-APB for 10 min, and the rates of SMA were recorded. These atria then were incubated with six increasing concentrations of ZD-7288 (10-100 μM) for 3-5 min at each concentration, and the rates of SMA were recorded. Right atria (n=7) were titrated similarly with ZD-7288 (0-100 μM) and the change in their contraction frequency was recorded.

| IC50 (rat left atria [3]; Rattus norvegicus, intact left atria exposed to BayK 8644 and 2-APB, read-out: IC50 for decrease of STA) | IC50 (rat right atria; Rattus norvegicus, untreated right atria titrated with zatebradine, read-out: IC50 for decrease of right atrial contraction frequency) | Compound | DIDS concentration that reversed SMA completely [1] | maximum forces of left atrial contraction, beginning vs end of 35-min superfusion (rat left atria [2]; 400 μM DIDS alone, no 2-APB) | effect of If inhibitor on left atrial STA (rat left atria [3]) | effect on right atrial contraction frequency (rat right atria; ZD-7288 titration 0-100 μM) | rate of appendage STA (rat left atria [3]; isoproterenol+2-APB+70 μM zatebradine) | right atrial contraction frequency (rat right atria; isoproterenol+70 μM zatebradine) | maximum decrease of right atrial contraction frequency (rat right atria; zatebradine titration) | left atrial force of contraction (rat left atria [2]; 3 Hz paced, 300 nM BayK 8644, titrated with 10-100 μM zatebradine) |
| --- | --- | --- | --- | --- | --- | --- | --- | --- | --- | --- |
|  |  | O=S(=O)(O)c1cc(N=C=S)ccc1C=Cc1ccc(N=C=S)cc1S(=O)(=O)O [DIDS, 4,4′-diisothiocyanatostilbene-2,2′-disulfonic acid] | > 300 µM | not different |  |  |  |  |  |  |
|  |  | CCN(c1ccccc1)c1cc(NC)[n+](C)c(C)n1.[Cl-] [ZD-7288] |  |  | decreases left atrial STA | decreases right atrial contraction frequency less robustly than zatebradine |  |  |  |  |
| 58 ± 5 µM | 12 ± 1.1 µM | COc1ccc(CCN(C)CCCN2CCc3cc(OC)c(OC)cc3CC2=O)cc1OC [zatebradine, 3-[3-[[2-(3,4-Dimethoxyphenyl)ethyl]methylamino]propyl]-1,3,4,5-tetrahydro-7,8,-dimethoxy-2H-3-benzazepin-2-one hydrochloride] |  |  | significantly decreases |  | 110±24.5 contractions/min | 212±9.7 contractions/min | ~50% | 95±3.8 % of initial force |
